# Reference: patent publication US9283222B2 (priority 2006, dated 2016)
# Biological target: Recombinant Human Poly(ADP-Ribose) Polymerase (PARP), PARP-1 (Homo sapiens (Human), UniProt P09874)
# Conditions: read-out: PARP-1 (Ki); Table 1; text calls the values EC50s
# Chain of Recombinant Human Poly(ADP-Ribose) Polymerase (PARP), PARP-1 (P09874 whole entry): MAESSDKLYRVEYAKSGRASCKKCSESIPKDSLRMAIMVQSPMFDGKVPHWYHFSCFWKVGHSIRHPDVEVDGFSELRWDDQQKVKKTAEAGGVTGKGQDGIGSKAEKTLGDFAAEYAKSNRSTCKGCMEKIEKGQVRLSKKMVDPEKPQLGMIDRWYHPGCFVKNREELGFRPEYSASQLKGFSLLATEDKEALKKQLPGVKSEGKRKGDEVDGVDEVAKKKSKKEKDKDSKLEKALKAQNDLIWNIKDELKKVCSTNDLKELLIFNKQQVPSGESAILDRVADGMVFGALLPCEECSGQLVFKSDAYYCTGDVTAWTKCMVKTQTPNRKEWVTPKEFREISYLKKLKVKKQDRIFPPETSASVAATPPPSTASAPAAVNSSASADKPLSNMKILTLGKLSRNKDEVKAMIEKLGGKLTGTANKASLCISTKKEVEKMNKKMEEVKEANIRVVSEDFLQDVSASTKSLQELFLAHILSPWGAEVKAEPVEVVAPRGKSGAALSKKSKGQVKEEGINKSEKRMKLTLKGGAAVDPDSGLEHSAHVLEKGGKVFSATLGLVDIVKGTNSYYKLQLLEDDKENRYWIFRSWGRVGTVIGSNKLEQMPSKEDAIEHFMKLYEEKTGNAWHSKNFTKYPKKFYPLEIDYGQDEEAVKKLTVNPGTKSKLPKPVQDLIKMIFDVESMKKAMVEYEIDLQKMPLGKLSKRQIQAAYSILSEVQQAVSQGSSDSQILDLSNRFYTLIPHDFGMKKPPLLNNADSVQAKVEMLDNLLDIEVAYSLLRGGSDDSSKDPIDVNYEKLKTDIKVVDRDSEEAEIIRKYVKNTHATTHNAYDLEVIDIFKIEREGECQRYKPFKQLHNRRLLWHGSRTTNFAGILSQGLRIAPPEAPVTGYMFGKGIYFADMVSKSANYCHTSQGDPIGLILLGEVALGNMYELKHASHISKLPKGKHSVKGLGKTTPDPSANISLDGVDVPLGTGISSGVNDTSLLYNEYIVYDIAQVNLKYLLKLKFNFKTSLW
row,Compound,Ki
1,"O=C(NCCN1CCCC1)c1cccc(Cc2n[nH]c(=O)c3c2CCCC3)c1 [Example 52, 3-((4-oxo-3,4,5,6,7,8-hexahydrophthalazin-1-yl)methyl)-N-(2-pyrrolidin-1-ylethyl)benzamide]",13 nM
2,"CC1CCCN1C(=O)c1cccc(Cc2n[nH]c(=O)c3c2CCCC3)c1 (stereo not shown) [Example 53, 4-(3-((2-methylpyrrolidin-1-yl)carbonyl)benzyl)-5,6,7,8-tetrahydrophthalazin-1(2H)-one]",10 nM
3,"O=C(NN1CCCCCC1)c1cccc(Cc2n[nH]c(=O)c3c2CCCC3)c1 [Example 54, N-azepan-1-yl-3-((4-oxo-3,4,5,6,7,8-hexahydrophthalazin-1-yl)methyl)benzamide]",205 nM
4,"O=C(NC1CNC1)c1cccc(Cc2n[nH]c(=O)c3c2CCCC3)c1 [Example 56, N-azetidin-3-yl-3-((4-oxo-3,4,5,6,7,8-hexahydrophthalazin-1-yl)methyl)benzamide]",5 nM
5,"O=C(NC1CCCNC1)c1cccc(Cc2n[nH]c(=O)c3c2CCCC3)c1 (stereo not shown) [Example 57, 3-((4-oxo-3,4,5,6,7,8-hexahydrophthalazin-1-yl)methyl)-N-piperidin-3-ylbenzamide]",60 nM
6,"CN(C)c1ccc(NC(=O)c2cccc(Cc3n[nH]c(=O)c4c3CCCC4)c2)cc1 [Example 58, N-(4-(dimethylamino)phenyl)-3-((4-oxo-3,4,5,6,7,8-hexahydrophthalazin-1-yl)methyl)benzamide]",51 nM
7,"CN1CCN(CCNC(=O)c2cccc(Cc3n[nH]c(=O)c4c3CCCC4)c2)CC1 [Example 59, N-(2-(4-methylpiperazin-1-yl)ethyl)-3-((4-oxo-3,4,5,6,7,8-hexahydrophthalazin-1-yl)methyl)benzamide]",24 nM
8,"O=C(c1cccc(Cc2n[nH]c(=O)c3c2CCCC3)c1)N1CCN(C(=O)c2ccno2)CC1 [Example 60, 4-(3-((4-(isoxazol-5-ylcarbonyl)piperazin-1-yl)carbonyl)benzyl)-5,6,7,8-tetrahydrophthalazin-1(2H)-one]",3 nM
9,"O=C(c1cccc(Cc2n[nH]c(=O)c3c2CCCC3)c1)N1CCC(c2ccccc2)CC1 [Example 61, 4-(3-((4-phenylpiperidin-1-yl)carbonyl)benzyl)-5,6,7,8-tetrahydrophthalazin-1(2H)-one]",6 nM
10,"O=C(NCC1CCCCN1)c1cccc(Cc2n[nH]c(=O)c3c2CCCC3)c1 (stereo not shown) [Example 62, 3-((4-oxo-3,4,5,6,7,8-hexahydrophthalazin-1-yl)methyl)-N-(piperidin-2-ylmethyl)benzamide]",42 nM
11,"O=C(NCC1CCNCC1)c1cccc(Cc2n[nH]c(=O)c3c2CCCC3)c1 [Example 63, 3-((4-oxo-3,4,5,6,7,8-hexahydrophthalazin-1-yl)methyl)-N-(piperidin-4-ylmethyl)benzamide]",23 nM
12,"O=C(NCCN1CCCCC1)c1cccc(Cc2n[nH]c(=O)c3c2CCCC3)c1 [Example 64, 3-((4-oxo-3,4,5,6,7,8-hexahydrophthalazin-1-yl)methyl)-N-(2-piperidin-1-ylethyl)benzamide]",40 nM
13,"CN1CC(NC(=O)c2cccc(Cc3n[nH]c(=O)c4c3CCCC4)c2)C1 [Example 65, N-(1-methylazetidin-3-yl)-3-((4-oxo-3,4,5,6,7,8-hexahydrophthalazin-1-yl)methyl)benzamide]",82 nM
14,"CNC(=O)c1cc(Cc2n[nH]c(=O)c3c2CCCC3)ccn1 [Example 67, N-methyl-4-((4-oxo-3,4,5,6,7,8-hexahydrophthalazin-1-yl)methyl)pyridine-2-carboxamide]",50 nM
15,"CS(=O)(=O)c1nccc(Cc2n[nH]c(=O)c3c2CCCC3)n1 [Example 69, 4-((2-(methylsulfonyl)pyrimidin-4-yl)methyl)-5,6,7,8-tetrahydrophthalazin-1(2H)-one]",40 nM
16,"C[S+]([O-])c1nccc(Cc2n[nH]c(=O)c3c2CCCC3)n1 (stereo not shown) [Example 70, 4-((2-(methylsulfinyl)pyrimidin-4-yl)methyl)-5,6,7,8-tetrahydrophthalazin-1(2H)-one]",101 nM
17,"CCNC(=O)c1cc(Cc2n[nH]c(=O)c3c2CCCC3)ccn1 [Example 75, N-ethyl-4-((4-oxo-3,4,5,6,7,8-hexahydrophthalazin-1-yl)methyl)pyridine-2-carboxamide]",56 nM
18,"CC(C)NC(=O)c1cc(Cc2n[nH]c(=O)c3c2CCCC3)ccn1 [Example 76, N-isopropyl-4-((4-oxo-3,4,5,6,7,8-hexahydrophthalazin-1-yl)methyl)pyridine-2-carboxamide]",473 nM
19,"O=C(NC1CCCCC1)c1cc(Cc2n[nH]c(=O)c3c2CCCC3)ccn1 [Example 77, N-cyclohexyl-4-((4-oxo-3,4,5,6,7,8-hexahydrophthalazin-1-yl)methyl)pyridine-2-carboxamide]",195 nM
20,"CN(CC1CCCCN1C)C(=O)c1cccc(Cc2n[nH]c(=O)c3c2CCCC3)c1 (stereo not shown) [Example 78, N-methyl-N-((1-methylpiperidin-2-yl)methyl)-3-((4-oxo-3,4,5,6,7,8-hexahydrophthalazin-1-yl)methyl)benzamide]",165 nM
21,"CN1CCC(CNC(=O)c2cccc(Cc3n[nH]c(=O)c4c3CCCC4)c2)CC1 [Example 79, N-((1-methylpiperidin-4-yl)methyl)-3-((4-oxo-3,4,5,6,7,8-hexahydrophthalazin-1-yl)methyl)benzamide]",18 nM

row,Compound,Ki
1,"CNC(=O)c1cccc(Cc2n[nH]c(=O)c3c2CCCC3)n1 [Example 80, N-methyl-6-((4-oxo-3,4,5,6,7,8-hexahydrophthalazin-1-yl)methyl)pyridine-2-carboxamide]",47 nM
2,"CCNC(=O)c1cccc(Cc2n[nH]c(=O)c3c2CCCC3)n1 [Example 81, N-ethyl-6-((4-oxo-3,4,5,6,7,8-hexahydrophthalazin-1-yl)methyl)pyridine-2-carboxamide]",123 nM
3,"CC(C)NC(=O)c1cccc(Cc2n[nH]c(=O)c3c2CCCC3)n1 [Example 82, N-isopropyl-6-((4-oxo-3,4,5,6,7,8-hexahydrophthalazin-1-yl)methyl)pyridine-2-carboxamide]",691 nM
4,"O=C(NC1CC1)c1cccc(Cc2n[nH]c(=O)c3c2CCCC3)n1 [Example 83, N-cyclopropyl-6-((4-oxo-3,4,5,6,7,8-hexahydrophthalazin-1-yl)methyl)pyridine-2-carboxamide]",126 nM
5,"O=C(NC1CCCCC1)c1cccc(Cc2n[nH]c(=O)c3c2CCCC3)n1 [Example 84, N-cyclohexyl-6-((4-oxo-3,4,5,6,7,8-hexahydrophthalazin-1-yl)methyl)pyridine-2-carboxamide]",617 nM
6,"COC(=O)c1ncccc1Cc1n[nH]c(=O)c2c1CCCC2 [Example 85, methyl 3-((4-oxo-3,4,5,6,7,8-hexahydrophthalazin-1-yl)methyl)pyridine-2-carboxylate]",396 nM
7,"COC(=O)c1ccc(Cc2n[nH]c(=O)c3c2CCCC3)cn1 [Example 86, methyl 5-((4-oxo-3,4,5,6,7,8-hexahydrophthalazin-1-yl)methyl)pyridine-2-carboxylate]",390 nM
8,"Nc1cccc(Cc2n[nH]c(=O)c3c2CCCC3)c1 [Example 89, 4-(3-aminobenzyl)-5,6,7,8-tetrahydrophthalazin-1(2H)-one]",111 nM
9,"O=c1[nH]nc(Cc2cccs2)c2c1CCCC2 [Example 91, 4-(thien-2-ylmethyl)-5,6,7,8-tetrahydrophthalazin-1(2H)-one]",70 nM
10,"COC(=O)c1ccc(Cc2n[nH]c(=O)c3c2CCCC3)s1 [Example 92, methyl 5-((4-oxo-3,4,5,6,7,8-hexahydrophthalazin-1-yl)methyl)thiophene-2-carboxylate]",167 nM
11,"CNC(=O)c1ccc(Cc2n[nH]c(=O)c3c2CCCC3)cn1 [Example 93, N-methyl-5-((4-oxo-3,4,5,6,7,8-hexahydrophthalazin-1-yl)methyl)pyridine-2-carboxamide]",840 nM
12,"CCNC(=O)c1ccc(Cc2n[nH]c(=O)c3c2CCCC3)cn1 [Example 94, N-ethyl-5-((4-oxo-3,4,5,6,7,8-hexahydrophthalazin-1-yl)methyl)pyridine-2-carboxamide]",856 nM
13,"CNC(=O)c1ncccc1Cc1n[nH]c(=O)c2c1CCCC2 [Example 95, N-methyl-3-((4-oxo-3,4,5,6,7,8-hexahydrophthalazin-1-yl)methyl)pyridine-2-carboxamide]",1260 nM
14,"CCNC(=O)c1ncccc1Cc1n[nH]c(=O)c2c1CCCC2 [Example 96, N-ethyl-3-((4-oxo-3,4,5,6,7,8-hexahydrophthalazin-1-yl)methyl)pyridine-2-carboxamide]",2610 nM
15,"CN(C)S(=O)(=O)Nc1cccc(Cc2n[nH]c(=O)c3c2CCCC3)c1 [Example 97, N,N-dimethyl-N′-(3-((4-oxo-3,4,5,6,7,8-hexahydrophthalazin-1-yl)methyl)phenyl)sulfamide]",390 nM
16,"O=C(CCN1CCCCC1)Nc1cccc(Cc2n[nH]c(=O)c3c2CCCC3)c1 [Example 98, N-(3-((4-oxo-3,4,5,6,7,8-hexahydrophthalazin-1-yl)methyl)phenyl)-3-piperidin-1-ylpropanamide]",286 nM
17,CCCC(=O)Nc1ccc(Cl)c(Cc2n[nH]c(=O)c3c2CCCC3)c1 [Example 99],44 nM
18,"O=C1CCCN1c1cccc(Cc2n[nH]c(=O)c3c2CCCC3)c1 [Example 100, 4-(3-(2-oxopyrrolidin-1-yl)benzyl)-5,6,7,8-tetrahydrophthalazin-1(2H)-one]",39 nM
19,"O=C1CCN1c1cc(Cc2n[nH]c(=O)c3c2CCCC3)ccn1 [Example 101, 4-((2-(2-oxoazetidin-1-yl)pyridin-4-yl)methyl)-5,6,7,8-tetrahydrophthalazin-1(2H)-one]",21 nM
20,"O=C1CCCN1c1ccc(Cc2n[nH]c(=O)c3c2CCCC3)cn1 [Example 104, 4-((6-(2-oxopyrrolidin-1-yl)pyridin-3-yl)methyl)-5,6,7,8-tetrahydrophthalazin-1(2H)-one]",1230 nM

# Same assay, conditions: read-out: PARP-1 (Ki); Table 2; A2 is C1-alkyl versus no A2 (bond)
row,Compound,Ki
1,O=C1CCN1c1cc(-c2n[nH]c(=O)c3c2CCCC3)ccc1F,291 nM

# Same assay, conditions: read-out: PARP-1 (Ki); Table 3; H analogs versus para-F analogs
row,Compound,Ki
1,CCN(CC)C(=O)C1CCCN(C(=O)c2cccc(Cc3n[nH]c(=O)c4c3CCCC4)c2)C1 (stereo not shown),27 nM
